Test results from publication PMC4627230, “Identification of TAX2 peptide as a new unpredicted anti-cancer agent” (Oncotarget, 2015).

Key:
TSP-1:CD47 = assay: Co-immunoprecipitation TSP-1:CD47 in HUVECs; type: cell-based, human; conditions: 100 μM vs scrambled peptide 100 μM, n = 3
Experimental: Figure 2 TAX2 peptide impairs endothelial cell migration and inhibits angiogenesis in vitro and ex vivo A. HUVECs were treated with TAX2 (100 μM) or scrambled peptide (Ctrl, 100 μM). CD47 was immunoprecipitated from total protein lysates using anti-CD47 (clone B6H12) and non-specific IgGs were used as a negative control. Immunocomplexes were then submitted to SDS-PAGE and immunoblotted (IB) using specific TSP-1 and CD47 antibodies. Histogram represents the quantification of co-immunoprecipitated TSP-1 relative to immunoprecipitated CD47. Results are expressed as percentage compared to control (n = 3 separate experiments, t test). B. HUVECs (1 × 10^5 per well) were grown at confluence and then cell proliferation was inhibited by incubating with 10 μg/mL mitomycin C for 2 h. […] Graph represents the quantification of the wounded area. […] Hoechst-stained migrating cells attached on outside surface of the top chamber were photographed (20× objective) and counted. Results are expressed as percentage of migrated cells as compared to control. […] After 8 h incubation, HUVEC tube-like formation was observed on an inverted microscope (40×) and quantification of network total length was done using ImageJ software. […] Data are expressed as the mean ± SE from at least 3 independent experiments, each performed in triplicate. […] The transcriptional level of TSP-1 was assessed by RT-PCR and normalized to β-actin. […]

[1] = system: tumor vascularization of B16F1 melanoma in C57BL/6 mice; assay: B16F1 melanoma tumor angiography (μCT) and CD31 immunostaining; type: in vivo, mouse; conditions: 10 mg/kg i.p. days 3, 5, 7
Experimental: For the subcutaneous melanoma tumor model, suspensions of B16F1 cells (2.5 × 10^5 cells in 100 μL RPMI-1640 medium) were subcutaneously injected into the left flank of different randomized series of syngeneic C57BL/6 mice (n = 8–10 per group), as previously described. Intraperitoneal administrations of peptide (10 mg/kg mouse weight) or controls (physiological serum 0.9% (w/v) NaCl or a scrambled peptide) were performed at days 3, 5 and 7. In human pancreatic carcinoma xenograft experiments, 3 × 10^6 MIA PaCa-2 cells/mouse were implanted subcutaneously into the left flank of BALB/C athymic nude mice, then TAX2 intraperitoneal treatments (10 mg/kg mouse weight) were performed 3 times a week during 4 weeks starting at day 10 after tumor cells inoculation. Tumor volume was determined according to v = 0.5 A × B^2, where A denotes the largest dimension of the tumor and B represents the smallest dimension. At days indicated, mice were sacrificed and tumors were surgically extracted and fixed in 4% paraformaldehyde for further morphologic studies and for magnetic resonance imaging, or frozen for immunohistochemistry. Mice were also weighed every 2–3 days and daily checked for any modification in their behavior. Loss of 15% body weight was an indication for euthanasia as well as severe tumor necrosis, as it was sometimes associated with skin ulceration that would result in loss of body fluid and/or infection.
Histological analysis of formaldehyde-fixed and paraffin-embedded tumors were performed on hemalun, phloxin and saffron (HPS) stained 3 μm thick sections prepared using routine histological methods. To assess tumor-associated microvessel density (MVD), CD31 immunostaining was performed on 5 μm thick cryosections using biotin-labeled secondary antibody and streptavidin-HRP AEC detection system (Microm Microtech, Francheville, France), followed by hematein counter-coloration. Negative controls were done omitting the primary antibody. The necrotic part relative to total tumor surface for each tumor slice as well as MVD were quantified using ImageJ software.
Animals were anesthetized by isoflurane (Forene, Abbott France, Rungis, France) inhalation (3% for induction and 1–1.5% for maintenance) and then after placed in a carbon fibers bed. CT images were acquired on a dedicated small animal μCT scanner (Skyscan 1076, Bruker, Kontich, Belgium) while continuously rotating the camera by 180° with the following parameters: 50 kV, 0.5 mm Al filter, 200 μA source current, 35 μm isotropic resolution, 180 ms exposure time, 4 projection images per 0.7° rotation step and a retrospective synchronization. The projections were reconstructed using a filtered backprojection algorithm using Skyscan software (NRecon, Skyscan). For tumor angiography analysis, an alkaline earth-based nanoparticulate contrast agent (Viscover ExiTron nano 12000, Miltenyi Biotec, Paris, France) was injected in the mouse tail vein. Mice were imaged during the next 30 min following injection, a period during which no reduction in contrast was observed. Analysis of reconstructed images and quantification of the vascular network were performed using Amira 5.4.3 software.

[2] = μCT angiography, representative of n = 5

## CEVSQLLKGDAC (disulfide) [TAX2, CD47-derived cyclic disulfide dodecapeptide …]
TSP-1:CD47
  TSP-1 binding to CD47 (co-immunoprecipitation): specifically prevents TSP-1 binding to CD47
[1]
  tumor vasculature appearance in 3D reconstruction, day 14: highly anarchic and discontinuous, only at the tumor surface, surrounding a central hemorrhagic area
[1]; tumor cryosections, n = 6
  blood vessel size (CD31): diminution in vessel size
  diminution in intratumoral MVD (CD31): 60%
[1]; [2]
  blood vessels within tumors, day 7: undetectable
  central vascular network within tumors, day 14: still lacking and a wide hemorrhagic area corresponding to the previously described necrotic zone was observed
  intratumoral vascularization, day 10: restricted to tumor periphery
[1]; μCT day 14
  length and diameter of tumor blood vessels: significantly decreased both the length and diameter of blood vessels
  reduction in blood vessel mean volume: 2 fold
